We go through 35 molecules from patent US8324245B2, “Quinoline derivative and quinazoline derivative inhibiting self-phosphorylation of hepatocytus proliferator receptor, and medicinal composition containing the same” (Kyowa Hakko Kirin Co., Ltd., priority 2001, dated 2012).

Usually IC50 stands for the point on the concentration scale where inhibition reaches its midpoint.

T1 sequence (P08581 25-1390): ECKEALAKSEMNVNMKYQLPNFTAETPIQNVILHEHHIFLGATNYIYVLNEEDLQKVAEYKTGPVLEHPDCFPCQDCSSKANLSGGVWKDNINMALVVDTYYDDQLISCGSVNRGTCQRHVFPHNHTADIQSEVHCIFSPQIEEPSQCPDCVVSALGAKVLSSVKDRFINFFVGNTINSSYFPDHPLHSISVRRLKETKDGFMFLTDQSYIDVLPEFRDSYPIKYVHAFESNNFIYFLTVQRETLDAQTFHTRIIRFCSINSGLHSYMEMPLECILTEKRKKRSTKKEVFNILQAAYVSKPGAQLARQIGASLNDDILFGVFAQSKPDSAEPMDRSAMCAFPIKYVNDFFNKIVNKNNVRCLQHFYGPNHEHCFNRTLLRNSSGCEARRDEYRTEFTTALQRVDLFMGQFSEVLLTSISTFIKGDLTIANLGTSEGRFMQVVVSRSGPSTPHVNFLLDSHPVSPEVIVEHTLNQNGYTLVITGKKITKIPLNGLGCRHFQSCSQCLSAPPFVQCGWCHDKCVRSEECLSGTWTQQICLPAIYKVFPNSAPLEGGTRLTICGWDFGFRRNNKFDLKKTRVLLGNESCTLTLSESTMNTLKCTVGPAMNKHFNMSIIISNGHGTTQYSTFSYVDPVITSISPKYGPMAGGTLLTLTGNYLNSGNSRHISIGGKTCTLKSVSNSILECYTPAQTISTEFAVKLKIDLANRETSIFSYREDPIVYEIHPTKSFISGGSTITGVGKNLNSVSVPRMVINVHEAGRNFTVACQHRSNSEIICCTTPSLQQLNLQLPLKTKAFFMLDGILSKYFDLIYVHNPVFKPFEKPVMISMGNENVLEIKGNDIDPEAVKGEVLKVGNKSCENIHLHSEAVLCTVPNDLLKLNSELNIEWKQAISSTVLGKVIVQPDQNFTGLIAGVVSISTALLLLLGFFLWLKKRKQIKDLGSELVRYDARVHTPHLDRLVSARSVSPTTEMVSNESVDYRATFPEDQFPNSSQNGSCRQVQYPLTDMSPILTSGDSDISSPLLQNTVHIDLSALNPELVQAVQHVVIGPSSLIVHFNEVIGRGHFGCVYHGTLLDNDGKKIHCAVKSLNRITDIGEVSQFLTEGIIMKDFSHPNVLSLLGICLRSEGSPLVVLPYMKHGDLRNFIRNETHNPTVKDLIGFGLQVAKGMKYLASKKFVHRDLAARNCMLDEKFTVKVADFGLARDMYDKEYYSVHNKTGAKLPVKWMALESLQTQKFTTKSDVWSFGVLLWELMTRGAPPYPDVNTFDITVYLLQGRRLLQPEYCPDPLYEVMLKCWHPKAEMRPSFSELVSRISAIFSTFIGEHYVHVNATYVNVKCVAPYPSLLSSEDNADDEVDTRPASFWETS

The assay concerns the target T1, met (HGF receptor) in human gastric cancer cells MKN45 (Homo sapiens, UniProt P08581).
T1 construct: endogenous in cells; host or cells: MKN45 human gastric cancer cells
The experiment in a line: Inhibitory activity against met-autophosphorylation using ELISA method (2), MKN45 cells, HGF-independent. In kind it is cell-based. An outline of the steps: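 MKN45 cells, 3×10^4 per well in RPMI with 0.1% FCS overnight, were exposed to compound in DMSO for 1 h at 37 °C without HGF. Lysates were captured on anti-phosphotyrosine (PY20) plates, Met detected with anti-Met and peroxidase secondary antibody, absorbance at 450 nm.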
(In general: An ELISA detects its analyte on a solid surface through an enzyme-linked reagent.)
Molecule `COc1cc2c(Oc3ccc(NC(=S)NC(=O)Cc4ccccc4Cl)cc3F)ccnc2cc1OCC(O)CN1CCCCC1` (centres unmarked) [Example 316, 1-[2-(2-Chloro-phenyl)-acetyl]-3-{3-fluoro-4-[7-(2-hydroxy-3-piperidin-1-yl-propoxy)-6-methoxy-quinolin-4-yloxy]-phenyl}-thiourea] displayed an IC50 of 188 nM. In the case of `COc1cc2c(Oc3ccc(NC(=O)NC(=O)Cc4ccc(F)cc4)cc3F)ccnc2cc1OCCCCN1CCCCC1` [Example 42, 1-{3-fluoro-4-[6-methoxy-7-(4-piperidine-1-yl-butoxy)quinolin-4-yloxy]phenyl}-3-[2-(4-fluorophenyl)-acetyl]urea] it was 190 nM. As for `COc1cc2nccc(Oc3ccc(NC(=O)C(C)C(=O)NC4CCCCC4)cc3)c2cc1OC` (centres unmarked) [Example 226, N-cyclohexyl-N′-[4-(6,7-dimethoxyquinolin-4-yloxy)phenyl]-2-methylmalonamide], the figure is 3230 nM; as for `COc1cc2nccc(Oc3ccc(NC(=S)NC(=O)CC4CCCCC4)cc3)c2cc1OC` [Example 61, 1-(2-cyclohexylacetyl)-3-[4-(6,7-dimethoxy-quinolin-4-yloxy)phenyl]thiourea], 113 nM; as for `COc1cc2nccc(Oc3ccc(NC(=O)NC(=O)Nc4c(F)cccc4F)cc3)c2cc1OC` [Example 265, N-(2,6-difluorophenyl)-({[4-(6,7-dimethoxy-quinolin-4-yloxy)anilino]carbonyl}amino)methanamide], 259 nM. `COc1cc2nccc(Oc3ccc(NC(=O)NC(=O)Cc4cc(F)cc(F)c4)cc3F)c2cc1OC` [Example 142, 1-[2-(3,5-difluorophenyl)acetyl]-3-[4-(6,7-dimethoxyquinolin-4-yloxy)-3-fluorophenyl]urea] came in with an IC50 of 285 nM.

For `COc1cc2nccc(Oc3ccc(NC(=S)NC(=O)Cc4cccc(Cl)c4)cc3)c2cc1OC` [Example 171, 1-[2-(3-chlorophenyl)acetyl]-3-[4-(6,7-dimethoxyquinolin-4-yloxy)phenyl]thiourea], inhibition was half-maximal at 282 nM (IC50). In the case of `COc1cc(Oc2ccnc3cc(OC)c(OC)cc23)ccc1NC(=S)NC(=O)Cc1ccccc1` [Example 69, 1-[4-(6,7-dimethoxyquinolin-4-yloxy)-2-methoxyphenyl]-3-phenylacetylthiourea] it was 4.4 nM; in that of `COc1cc2nccc(Oc3ccc(NC(=O)CC(=O)N(C)c4ccccc4)cc3)c2cc1OC` [Example 216, N-[4-(6,7-dimethoxyquinolin-4-yloxy)phenyl]-N′-methyl-N′-phenylmalonamide], 228 nM; in that of `COc1cc2c(Oc3ccc(NC(=O)NC(=O)Cc4ccc(F)cc4)c(F)c3)ccnc2cc1OCc1ccccc1` [Example 40, N-(4-{[7-(Benzyloxy)-6-methoxy-4-quinolyl]oxy}-2-fluorophenyl)-N′-[2-(4-fluorophenyl)acetyl]urea], 242 nM. In the case of `COc1cc2nccc(Oc3ccc(NC(=O)NC(=O)Nc4cccc5cccnc45)cc3)c2cc1OC` [Example 260, N-(8-quinolyl)-({[4-(6,7-dimethoxyquinolin-4-yloxy)anilino]carbonyl}amino)methanamide] it was 2230 nM. In the case of `COc1cc2nccc(Oc3ccc(NC(=S)NC(=O)Cc4cccc(C)c4)cc3F)c2cc1OC` [Example 176, 1-[4-(6,7-dimethoxyquinolin-4-yloxy)-3-fluorophenyl]-3-(2-m-tolylacetyl)thiourea] it was 221 nM. As for `COc1cc2c(Oc3ccc(NC(=S)NC(=O)Cc4ccc(Cl)cc4)cc3F)ccnc2cc1OCC(O)CN1CCCCC1` (centres unmarked) [Example 327, 1-[2-(4-Chloro-phenyl)-acetyl]-3-{3-fluoro-4-[7-(2-hydroxy-3-piperidin-1-yl-propoxy)-6-methoxy-quinolin-4-yloxy]-phenyl}-thiourea], the IC50 was 798 nM. As for `COc1cc2nccc(Oc3ccc(NC(=S)NC(=O)Cc4ccccc4)cc3C)c2cc1OC` [Example 67, 1-[4-(6,7-dimethoxyquinolin-4-yloxy)-3-methyl-phenyl]-3-phenylacetylthiourea], the figure is 19.7 nM; as for `COc1cc2nccc(Oc3ccc(NC(=O)NC(=O)Cc4cc(F)ccc4F)cc3F)c2cc1OC` [Example 133, 1-[2-(2,5-difluorophenyl)acetyl]-3-[4-(6,7-dimethoxyquinolin-4-yloxy)-3-fluorophenyl]urea], 261 nM. `COc1cc2nccc(Oc3c(Cl)cc(NC(=S)NC(=O)Cc4ccccc4)cc3Cl)c2cc1OC` [Example 70, 1-[3,5-dichloro-4-(6,7-dimethoxyquinolin-4-yloxy)phenyl]-3-phenylacetylthiourea]: half-maximal inhibition (IC50) was put at 15.3 nM. In the case of `COc1ccccc1NC(=O)CC(=O)Nc1ccc(Oc2ccnc3cc(OC)c(OC)cc23)cc1` [Example 211, N-[4-(6,7-dimethoxyquinolin-4-yloxy)phenyl]-N′-(2-methoxyphenyl)malonamide] it was 252 nM; in that of `COc1cc2nccc(Oc3ccc(NC(=S)NC(=O)Cc4cccc(F)c4)cc3)c2cc1OC` [Example 164, 1-[4-(6,7-dimethoxyquinolin-4-yloxy)phenyl]-3-[2-(3-fluorophenyl)acetyl]thiourea], 242 nM; in that of `COc1cc2nccc(Oc3ccc(NC(=O)NC(=O)Cc4ccc(F)cc4)cc3F)c2cc1OC` [Example 23, 1-[4-(6,7-dimethoxyquinolin-4-yloxy)-3-fluoro-phenyl]-3-[2-(4-fluorophenyl)acetyl]urea], 26.3 nM. As for `COc1cc2c(Oc3ccc(NC(=S)NC(=O)Cc4ccccc4F)cc3F)ccnc2cc1OCC(O)CN1CCCC1` (centres unmarked) [Example 319, 1-{3-Fluoro-4-[7-(2-hydroxy-3-pyrrolidin-1-yl-propoxy)-6-methoxy-quinolin-4-yloxy]-phenyl}-3-[2-(2-fluoro-phenyl)-acetyl]-thiourea], the figure is 127 nM; as for `COc1cc2nccc(Oc3ccc(NC(=S)NC(=O)Cc4c(F)cccc4F)cc3F)c2cc1OC` [Example 95, 1-[2-(2,6-difluorophenyl)acetyl]-3-[4-(6,7-dimethoxyquinolin-4-yloxy)-3-fluorophenyl]thiourea], 41.3 nM; as for `COc1cc2nccc(Oc3ccc(NC(=S)NC(=O)Cc4c(F)ccc(F)c4F)cc3F)c2cc1OC` [Example 206, 1-[4-(6,7-dimethoxyquinolin-4-yloxy)-3-fluorophenyl]-3-[2-(2,3,6-trifluorophenyl)acetyl]-thiourea], 444 nM.

In the case of `COc1cc2nccc(Oc3ccc(NC(=O)NC(=O)Nc4cc(C)on4)cc3)c2cc1OC` [Example 232, N-(5-methyl-3-isoxazolyl)-({[4-(6,7-dimethoxyquinolin-4-yloxy)anilino]carbonyl}amino)-methanamide], inhibition was half-maximal at 256 nM (IC50).

`COc1cccc(NC(=O)NC(=O)Nc2ccc(Oc3ccnc4cc(OC)c(OC)cc34)cc2)c1` [Example 244, N-(3-methoxyphenyl)-({[4-(6,7-dimethoxy-quinolin-4-yloxy)anilino]carbonyl}amino)methanamide] returned an IC50 of 342 nM. `COc1cc2nccc(Oc3ccc(NC(=O)CC(=O)Nc4cccc(O)c4)cc3)c2cc1OC` [Example 220, N-[4-(6,7-dimethoxyquinolin-4-yloxy)phenyl]-N′-(3-hydroxyphenyl)malonamide] came in with an IC50 of 297 nM.

As to `COc1cc2nccc(Oc3ccc(NC(=O)NC(=O)Cc4ccccc4F)c(F)c3)c2cc1OC` [Example 26, 1-[4-(6,7-dimethoxyquinolin-4-yloxy)-2-fluoro-phenyl]-3-[2-(2-fluorophenyl)acetyl]urea], the IC50 amounted to 126 nM. As for `COc1cc2nccc(Oc3ccc(NC(=O)NC(=O)Nc4ccc(F)cc4F)cc3)c2cc1OC` [Example 229, N-(2,4-difluorophenyl)-({[4-(6,7-dimethoxy-quinolin-4-yloxy)anilino]carbonyl}amino)methanamide], the figure is 273 nM.

With `COc1cc2nccc(Oc3cc(C)c(NC(=O)CC(=O)Nc4ccc(F)cc4F)cc3C)c2cc1OC` [Example 224, N-(2,4-difluorophenyl)-N′-[4-(6,7-dimethoxy-quinolin-4-yloxy)-2,5-dimethylphenyl]malonamide], the midpoint of inhibition, the IC50, lay at 316 nM. Consider `COc1cc2c(Oc3ccc(NC(=O)NC(=O)Cc4ccccc4)cc3F)ccnc2cc1OCCCN1CCN(C)CC1` [Example 53, 1-(3-fluoro-4-{6-methoxy-7-[3-(4-methyl-piperazin-1-yl)-propoxy]quinolin-4-yloxy}phenyl)-3-phenylacetylurea], for which the IC50 was 37.4 nM. `COc1cc2nccc(Oc3ccc(NC(=S)NC(=O)Cc4cccs4)cc3)c2cc1OC` [Example 66, 1-[4-(6,7-dimethoxyquinolin-4-yloxy)phenyl]-3-(2-thiophen-2-ylacetyl)thiourea] displayed an IC50 of 79.2 nM. In the case of `COc1cc2nccc(Oc3ccc(NC(=O)NC(=O)Nc4ncccc4C)cc3)c2cc1OC` [Example 233, N-(3-methyl-2-pyridyl)-({[4-(6,7-dimethoxy-quinolin-4-yloxy)anilino]carbonyl}amino)methanamide] it was 322 nM. As for `COc1cc2nccc(Oc3ccc(NC(=O)NC(=O)Cc4ccsc4)cc3F)c2cc1OC` [Example 20, 1-[4-(6,7-dimethoxyquinolin-4-yloxy)-3-fluoro-phenyl]-3-(2-thiophen-3-ylacetyl)urea], the figure is 31.8 nM. As for `COc1cc2c(Oc3ccc(NC(=S)NC(=O)Cc4ccccc4F)cc3F)ccnc2cc1OCC(O)CN1CCCCC1` (centres unmarked) [Example 318, 1-(3-Fluoro-4-[7-(2-hydroxy-3-piperidin-1-yl-propoxy)-6-methoxy-quinolin-4-yloxy]-phenyl)-3-[2-(2-fluoro-phenyl)-acetyl]-thiourea], the figure is 28.3 nM. The molecule `COc1cc2c(Oc3ccc(NC(=O)NC(=O)Cc4ccc(F)cc4)cc3F)ccnc2cc1OCCN1CCOCC1` [Example 55, 1-{3-fluoro-4-[6-methoxy-7-(2-morpholin-4-yl-ethoxy)quinolin-4-yloxy]phenyl}-3-[2-(4-fluorophenyl)-acetyl]urea] registered an IC50 of 245 nM. With `COc1cc2nccc(Oc3ccc(NC(=S)NC(=O)c4ccccc4Br)cc3F)c2cc1OC` [Example 146, 1-(2-bromobenzoyl)-3-[4-(6,7-dimethoxy-quinolin-4-yloxy)-3-fluorophenyl]thiourea], inhibition was half-maximal at 1210 nM (IC50).
